Results reported in patent publication US8999956B2, “N-[(het)arylalkyl)] pyrazole(thio)carboxamides and their heterosubstituted analogues” (Bayer Intellectual Property GmbH, priority 2010, dated 2015).

Legend:
Pyrenophora teres = test: In vivo preventive test on Pyrenophora teres (barley); details: 500 ppm of active ingredient, evaluated 7-9 days after inoculation
Method: Solvent: 49 parts by weight of N,N-dimethylformamide Emulsifier: 1 part by weight of alkylaryl polyglycol ether To produce a suitable preparation of active compound, 1 part by weight of active compound is mixed with the stated amounts of solvent and emulsifier, and the concentrate is diluted with water to the desired concentration. To test for preventive activity, young plants are sprayed with the preparation of active compound at the stated rate of application. One day after this treatment, the plants are inoculated with an aqueous spore suspension of Pyrenophora teres.

[1] = log P by HPLC on reversed-phase column (EEC Directive 79/831 Annex V.A8); type: physicochemical
Method: In table 1, the log P values were determined in accordance with EEC Directive 79/831 Annex V.A8 by HPLC (High Performance Liquid Chromatography) on a reversed-phase column (C18), using the method described below: Temperature: 40° C.; […]

logP [1] | SMILES | Efficacy (Pyrenophora teres) [%]
3.76 | CN(C(=O)c1c(C(F)F)nn(C)c1F)C(COc1ccc2ccccc2c1)C1CC1 (racemic) [Example 139] | 90
4.03 | Cn1nc(C(F)F)c(C(=O)N(CCOc2ccc(-c3ccccc3)cc2)C2CC2)c1Cl [Example 28] | 90
1.86 | CCC(COc1cc(OC)ccn1)NC(=O)c1c(C(F)F)nn(C)c1Cl (centres unmarked) [Example 43] | 89
3.04 | Cn1nc(C(F)F)c(C(=O)NCCOc2ccc(C(F)(F)F)cc2)c1F [Example 68] | 80
4.11 | Cn1nc(C(F)F)c(C(=O)NC(C)(C)CCc2cccc(C(F)(F)F)c2)c1Cl [Example 135] | 90
3.17 | CN(CCCc1ccccc1Cl)C(=O)c1c(C(F)F)nn(C)c1Cl [Example 141] | 90
3.99 | Cn1nc(C(F)F)c(C(=O)NC(C)(C)CCc2ccccc2Cl)c1Cl [Example 147] | 100
3.68 | Cn1nc(C(F)F)c(C(=O)NCCCc2ccc(Cl)cc2Cl)c1Cl [Example 179] | 100
2.86 | CN(CCC(=O)Nc1ccc(Cl)c(Cl)c1)C(=O)c1c(C(F)F)nn(C)c1Cl [Example 233] | 
4.39 | CCCN(CCCOc1c(C)cc(C)cc1C)C(=O)c1c(C(F)F)nn(C)c1Cl [Example 234] | 
4.27 | CCCN(CCCOc1c(C)cc(C)cc1C)C(=O)c1c(C(F)F)nn(C)c1F [Example 235] | 
3.11 | CC(CSCc1ccco1)N(C(=O)c1c(C(F)F)nn(C)c1F)C1CC1 (centres unmarked) [Example 236] | 
3.27 | CC(CSCc1ccco1)N(C(=O)c1c(C(F)F)nn(C)c1Cl)C1CC1 (centres unmarked) [Example 237] | 
2.49 | CC(CSCc1ccco1)N(C)C(=O)c1c(C(F)F)nn(C)c1F (centres unmarked) [Example 238] | 
2.64 | CC(CSCc1ccco1)N(C)C(=O)c1c(C(F)F)nn(C)c1Cl (centres unmarked) [Example 239] | 
2.26 | Cn1nc(C(F)F)c(C(=O)NC2CCCC2Sc2ncccn2)c1Cl (centres unmarked) [Example 257] | 
2.17 | Cn1nc(C(F)F)c(C(=O)NC2CCCC2Sc2ncccn2)c1F (centres unmarked) [Example 258] | 89
3.78 | Cc1cccc(OC2CCCC2NC(=O)c2c(C(F)F)nn(C)c2Cl)c1 (centres unmarked) [Example 260] | 70
2.73 | CN(CC=Cc1ccccc1)C(=O)c1c(C(F)F)nn(C)c1F [Example 262] | 
3.02 | CCN(CC=Cc1ccccc1)C(=O)c1c(C(F)F)nn(C)c1F [Example 264] | 
3.83 | Cn1nc(C(F)F)c(C(=O)N(CC#Cc2ccccc2)C(C)(C)C)c1F [Example 267] | 
3.96 | Cn1nc(C(F)F)c(C(=O)N(CC#Cc2ccccc2)C(C)(C)C)c1Cl [Example 268] | 

logP [1] | SMILES | Efficacy (Pyrenophora teres) [%]
2.92 | CN(CC#Cc1ccccc1)C(=O)c1c(C(F)F)nn(C)c1Cl [Example 270] | 
3.33 | Cn1nc(C(F)F)c(C(=O)N(CC#Cc2ccccc2)C2CC2)c1Cl [Example 272] | 
3.73 | Cn1nc(C(F)F)c(C(=O)N(CC#Cc2ccccc2)C2CCCC2)c1F [Example 273] | 
3.92 | Cn1nc(C(F)F)c(C(=O)N(CC#Cc2ccccc2)C2CCCC2)c1Cl [Example 274] | 
3.55 | Cn1nc(C(F)F)c(C(=O)N(CC#Cc2cc3ccccc3o2)C2CC2)c1F [Example 275] | 
3.85 | Cn1nc(C(F)F)c(C(=O)N(CC#Cc2cc3ccccc3s2)C2CC2)c1F [Example 276] | 
2.70 | Cn1nc(C(F)F)c(C(=O)N(CC#Cc2ccco2)C2CC2)c1F [Example 279] | 
2.82 | Cn1nc(C(F)F)c(C(=O)NC(C)(C)C#Cc2ccc(C#N)cc2)c1F [Example 284] | 
4.39 | CC(CC[Si](C)(C)C)N(C(=O)c1c(C(F)F)nn(C)c1F)C1CC1 (centres unmarked) [Example 304] | 
1.40 | COCCCCNC(=O)c1c(C(F)F)nn(C)c1F [Example 305] | 
5.01 | Cn1nc(C(F)F)c(C(=S)NC2CCCC2CCC(C)(C)C)c1F (centres unmarked) [Example 321] | 
4.96 | CC1CC(N(C(=S)c2c(C(F)F)nn(C)c2F)C2CC2)CC(C)(C)C1 (centres unmarked) [Example 323] | 
5.81 | CCCCCCC1CCCCC1NC(=S)c1c(C(F)F)nn(C)c1F (centres unmarked) [Example 327] | 
4.86 | CCCCC1CCCCC1NC(=S)c1c(C(F)F)nn(C)c1F (centres unmarked) [Example 332] | 
5.42 | CC(C)CC(C)C1CCCCC1NC(=S)c1c(C(F)F)nn(C)c1Cl (centres unmarked) [Example 336] | 
3.94 | C=CCC1CCCCC1N(C(=O)c1c(C(F)F)nn(C)c1F)C1CC1 (centres unmarked) [Example 346] | 
4.15 | Cn1nc(C(F)F)c(C(=O)NC2CCCCC2C(C)(C)C)c1Cl (centres unmarked) [Example 348] | 
3.79 | Cn1nc(C(F)F)c(C(=O)NC2CCCCC2C(C)(C)C)c1F (centres unmarked) [Example 349] | 95
5.17 | Cn1nc(C(F)F)c(C(=O)N(C2CC2)C2CCCCC2C2=CCCCC2)c1Cl (centres unmarked) [Example 377] | 
3.11 | CC#CC1(NC(=O)c2c(C(F)F)nn(C)c2Cl)CCCCC1 [Example 383] | 
2.56 | C#CC1(NC(=O)c2c(C(F)F)nn(C)c2F)CCCCC1 [Example 385] | 
3.15 | Cn1nc(C(F)F)c(C(=O)NC2(C(F)(F)F)CCCCC2)c1Cl [Example 386] | 

The remaining lines, values behind:

SMILES | logP [1] | Efficacy (Pyrenophora teres) [%]
CC(COc1ccccc1)NC(=O)c1c(C(F)F)nn(C)c1F (centres unmarked) [Example 13] | 2.66 | 94
CC(COc1ccccc1)NC(=O)c1c(C(F)F)nn(C)c1Cl (centres unmarked) [Example 14] | 2.84 | 95
Cn1nc(C(F)F)c(C(=O)NCCOc2ccc(Oc3ccccc3)cc2)c1Cl [Example 35] | 3.55 | 70
CC(C)C(CCc1ccc(Cl)cc1)NC(=O)c1c(C(F)F)nn(C)c1Cl (centres unmarked) [Example 62] | 4.11 | 80
CN(CCC(=O)Nc1ccc(Cl)c(Cl)c1)C(=O)c1c(C(F)F)nn(C)c1F [Example 232] | 2.71 | 
CN(C(=O)c1c(C(F)F)nn(C)c1F)C1CCCCC1Cc1ccccc1 (centres unmarked) [Example 253] | 3.72 | 
CN(C(=O)c1c(C(F)F)nn(C)c1Cl)C1CCCCC1Cc1ccccc1 (centres unmarked) [Example 254] | 3.87 | 
CN(CC=Cc1ccccc1)C(=O)c1c(C(F)F)nn(C)c1Cl [Example 261] | 2.84 | 
CCN(CC=Cc1ccccc1)C(=O)c1c(C(F)F)nn(C)c1Cl [Example 263] | 3.17 | 
COCCN(CC=Cc1ccccc1)C(=O)c1c(C(F)F)nn(C)c1Cl [Example 265] | 3.02 | 
COCCN(CC=Cc1ccccc1)C(=O)c1c(C(F)F)nn(C)c1F [Example 266] | 2.86 | 
CN(CC#Cc1ccccc1)C(=O)c1c(C(F)F)nn(C)c1F [Example 269] | 2.78 | 
Cn1nc(C(F)F)c(C(=O)NCC#Cc2cc3ccccc3s2)c1F [Example 277] | 3.19 | 
CN(CC#Cc1cc2ccccc2s1)C(=O)c1c(C(F)F)nn(C)c1F [Example 278] | 3.39 | 
Cn1nc(C(F)F)c(C(=O)NCC#Cc2ccco2)c1F [Example 280] | 2.14 | 
CN(CC#Cc1ccco1)C(=O)c1c(C(F)F)nn(C)c1F [Example 281] | 2.32 | 
Cn1nc(C(F)F)c(C(=O)N(CC#Cc2cccs2)C2CC2)c1F [Example 282] | 3.00 | 

SMILES | logP [1] | Efficacy (Pyrenophora teres) [%]
Cc1ccsc1C#CCN(C(=O)c1c(C(F)F)nn(C)c1F)C1CC1 [Example 283] | 3.31 | 
Cc1ccc2sc(C#CCN(C(=O)c3c(C(F)F)nn(C)c3F)C3CC3)cc2c1 [Example 285] | 4.26 | 
Cc1ccc(C#CCN(C(=O)c2c(C(F)F)nn(C)c2F)C2CC2)s1 [Example 286] | 3.37 | 
CCCCC1CCCC1NC(=S)c1c(C(F)F)nn(C)c1F (centres unmarked) [Example 308] | 4.39 | 
CCCC1CCCCC1NC(=S)c1c(C(F)F)nn(C)c1F (centres unmarked) [Example 345] | 4.21 | 
C=CCC1CCCCC1N(C(=O)c1c(C(F)F)nn(C)c1Cl)C1CC1 (centres unmarked) [Example 347] | 4.16 | 
Cn1nc(C(F)F)c(C(=S)NC2CCCCC2CCC(C)(C)C)c1Cl (centres unmarked) [Example 356] | 5.60 | 
CCC1(C)CC(NC(=O)c2c(C(F)F)nn(C)c2Cl)CC(C)(C)C1 (centres unmarked) [Example 362] | 4.44 | 
CCC1(C)CC(NC(=O)c2c(C(F)F)nn(C)c2F)CC(C)(C)C1 (centres unmarked) [Example 363] | 4.23 | 
Cn1nc(C(F)F)c(C(=O)N(C2CC2)C2CCCC2C2CCCC2)c1Cl (centres unmarked) [Example 369] | 4.83 | 
CC(CC1CCCCC1)N(C(=O)c1c(C(F)F)nn(C)c1Cl)C1CC1 (centres unmarked) [Example 371] | 4.56 | 
Cn1nc(C(F)F)c(C(=O)N(C2CC2)C2CCCCC2C2CCCCC2)c1Cl (centres unmarked) [Example 373] | 5.59 | 
Cn1nc(C(F)F)c(C(=O)NC2CCCCC2C2CCCCC2)c1Cl (centres unmarked) [Example 375] | 4.56 | 
CC#CC1(NC(=O)c2c(C(F)F)nn(C)c2F)CCCCC1 [Example 382] | 2.90 | 
C#CC1(NC(=O)c2c(C(F)F)nn(C)c2Cl)CCCCC1 [Example 384] | 2.73 | 
Cn1nc(C(F)F)c(C(=O)NC2(C(F)(F)F)CCCCC2)c1F [Example 387] | 3.00 | 
